From PMC8617681 (Pharmaceuticals, 2021)

Target: T1, human OATP1A2 (Homo sapiens, UniProt P46721)
T1 construct: Werner Siegmund and Dr. Markus Keiser (University of Greifswald); host or cells: HEK293
T1 sequence (P46721 1-670): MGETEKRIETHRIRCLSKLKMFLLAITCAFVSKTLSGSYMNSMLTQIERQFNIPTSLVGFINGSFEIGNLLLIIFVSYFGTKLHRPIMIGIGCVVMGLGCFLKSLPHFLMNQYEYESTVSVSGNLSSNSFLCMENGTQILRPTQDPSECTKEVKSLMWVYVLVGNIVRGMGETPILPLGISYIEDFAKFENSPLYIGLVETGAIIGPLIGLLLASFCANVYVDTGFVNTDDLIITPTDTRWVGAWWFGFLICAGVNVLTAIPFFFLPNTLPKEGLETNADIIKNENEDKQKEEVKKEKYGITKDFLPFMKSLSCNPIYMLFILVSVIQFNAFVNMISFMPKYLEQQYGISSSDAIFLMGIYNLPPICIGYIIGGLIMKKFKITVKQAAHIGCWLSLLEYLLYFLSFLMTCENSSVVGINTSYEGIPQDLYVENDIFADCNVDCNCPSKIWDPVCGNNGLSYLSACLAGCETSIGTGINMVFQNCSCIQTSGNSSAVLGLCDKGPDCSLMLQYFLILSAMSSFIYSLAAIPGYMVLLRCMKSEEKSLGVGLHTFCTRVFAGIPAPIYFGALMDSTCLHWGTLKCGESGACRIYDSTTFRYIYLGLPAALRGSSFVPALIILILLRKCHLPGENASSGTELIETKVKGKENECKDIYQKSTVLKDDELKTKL
Experiment: Cellular uptake in OATP1A2-overexpressing HEK293 cells
Type: in vitro ADME
Settings: 5 µM, 2.5 min incubation, HEK293 OATP1A2
Description: HEK293 cells, vector-transfected or human (h)SLCO1A2, hSLCO1B1 or hSLCO1B3 cDNA-transfected were kind gifts from Prof. Werner Siegmund and Dr. Markus Keiser (University of Greifswald, Greifswald, Germany). All the HEK293 cell lines were maintained in DMEM supplemented with 10% (v/v) FBS, 1% penicillin–streptomycin mix at 37 °C in 5% (v/v) CO2 and 500 μg/mL G418. Cells were first seeded in 12-well plates [coated with 50 mg/L poly (l-lysine) and 50 mg/L poly (l-ornithine)] at a density of 1.0 × 10^5 cells/well. For the uptake study, in order to induce the expression of OATP transporters, the cell culture medium was replaced with culture medium supplemented with 5 mM sodium butyrate 24 h before performing the uptake assay.
The uptake transport study was performed as described previously. […] The Krebs–Henseleit solution was prepared from Krebs–Henseleit-buffer modified powder and supplemented with 25 mM NaHCO3 and 2.5 mM CaCl2 adjusted to pH 6.4 with 1 M HCL. At 2.5 min, the incubation buffer was removed, and uptake was terminated by adding 1 mL of ice-cold Krebs–Henseleit buffer, followed by two times washing with 1 mL of ice-cold Krebs–Henseleit buffer. […] The cellular protein amount was determined by the Bradford method using 10 μL of the cell lysates with bovine serum albumin as a standard.

COc1ccc(CN2C3CC2CN(c2ccc(-c4cc(OCC(C)(C)O)cn5ncc(C#N)c45)cn2)C3)cn1 [selpercatinib]
uptake compared to vector control cells: did not observe any significant increase in the uptake
